Where a SMILES comes first, the peptide text is derived from it. The star is where a group is joined. Cbz = O=C(OCc1ccccc1)*
Columns and labels:
C2C12 cells = experiment: Extract exposure test (ISO), cell viability by ATP quantitation (CellTiter-Glo); type: cell-based; conditions: 40 um MG-132, positive control, vs negative control (p<0.05)
Procedure: An extract exposure test following ISO norms was performed to evaluate the toxicity of the neuroprosthesis material. 0.2 gm of material were added to 1 mL of DMEM culture medium and stirred at 37° C. for 24 hours or 7 days to create the extract samples. 100 uL of fetal bovine serum were added to 900 uL aliquots of the samples and used to treat C2C12 cells plated in a 96 well plate in triplicate. A negative control of untreated media and positive control of media containing 40 um MG-132, a small molecule proteasome inhibitor, were also performed. At 24 and 72 hours, cell viability was measured through quantitation of ATP using CellTiter-Glo (Promega) using a Tecan M1000Pro.

[1] = system: lower esophageal sphincter; experiment: Glucagon infusion through the neuroprosthesis microfluidic channel into the lower esophageal sphincter, intraluminal manometry; type: in vivo, swine
Procedure: The neuroprosthesis' distal tip was implanted in the lower esophageal sphincter and glucagon was infused through the microfluidic channel. This chemical stimulation yielded relaxation of the sphincter within 10-20 s. […] Muscle tone returned within 1.5 minutes whereupon repeated infusions led to relaxation. Injection of saline produced no measurable effect and served as negative a control.
Following validation of the safety, efficacy, and biocompatibility, the prosthesis was implanted Yorkshire swine (n=2, 94 kg & 70 kg). The optimized electrical stimulation parameters were programmed into the controller. A pump primed the microfluidic channel and injected 5mg/mL glucagon per neurochemical stimulus.
To characterize and validate the neuroprosthesis' ability to sense and create artificial peristalsis, a fluoroscopic pellet study was conducted. Barium sulfate (Bracco E-Z-HD Barium Sulfate for Suspension (98% w/w), Patterson Veterinary) was mixed with a sodium alginate solution (Sigma) in a 50:50 volume by weight ratio. After 10 minutes of sonication at 30 deg C., the suspension was pipetted into a custom silicone mold sized for a triple zero capsule. After 24 hours, these pellets were hydrated with a 2M CaCl2 solution for at least 2 hours and rinsed with PBS for 72 hours. They were then placed in the esophagus using the endoscope. Stimulation and sensing were performed by the neuroprosthesis and the pellet was radiographically visualized using fluoroscopy. Further, intraluminal manometry studies were performed (n=4, swine) to characterize changes in esophageal reflexes and pressures following tool-based tissue manipulation and neuroprosthesis implantation as well as capture artificial peristalsis created by the neuroprosthesis. An intraluminal manometer (Endoflip, Medtronic) was inserted into the middle and lower esophagus using an overtube to profile distensibility, pressure, pattern of motility and minimal diameter of the esophagus. […] Electromyography was recorded from the electrodes during stimulation and rest periods. […]

Molecule | cell viability (C2C12 cells) | time to relaxation of the sphincter ([1]; after glucagon infusion through microfluidic channel, distal tip in lower esophageal sphincter) [s] | time until muscle tone returned ([1]; after glucagon infusion, repeated infusions again led to relaxation) [min] | relaxation of the LES on glucagon infusion ([1]; microfluidic infusion by the neuroprosthesis, 5mg/mL glucagon per stimulus, tonic LES at rest)
CC(C)C[C@@H](C=O)NC(=O)[C@H](CC(C)C)NC(=O)[C@H](CC(C)C)NC(=O)OCc1ccccc1 [MG-132] (Cbz-Leu-Leu-Leu-aldehyde) | significantly decreased cell viability |  |  | 
glucagon |  | 10 to 20 | ≤ 1.5 | yielded relaxation of this LES
